Data taken from PubChem BioAssay AID248 (DTP/NCI, 2004).
Values joined by “and” are separate entries in the source; they are usually repeats but may differ in a detail not shown here. Equal values may be shown once. Toxic doses and inconclusive results are not listed.

System: L1210 leukemia ip in BDF1 mice, survival T/C
Experiment: NCI In Vivo Anticancer Drug Screen. Data for tumor model L1210 Leukemia (intraperitoneal) in B6D2F1 (BDF1) mice
Conditions: endpoint: mean survival time, higher = longer survival
How it was run: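 Transplantable tumor model; survival measured in treated vs vehicle control mice. Value = treated/control.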

[1] = dose: 100.0 mg/kg/injection, schedule: Q04DX002 (ip), vehicle: Klucel (hydroxypropylcellulose) (HPC)
[2] = dose: 200.0 mg/kg/injection, schedule: Q04DX002 (ip), vehicle: Klucel (hydroxypropylcellulose) (HPC)
[3] = dose: 400.0 mg/kg/injection, schedule: Q04DX002 (ip), vehicle: Klucel (hydroxypropylcellulose) (HPC)
[4] = dose: 100.0 mg/kg/injection, schedule: Q04DX003 (ip), vehicle: saline with Tween-80
[5] = dose: 200.0 mg/kg/injection, schedule: Q04DX003 (ip), vehicle: saline with Tween-80
[6] = dose: 400.0 mg/kg/injection, schedule: Q04DX003 (ip), vehicle: saline with Tween-80
[7] = dose: 100.0 mg/kg/injection, schedule: Q01DX009 (ip), vehicle: Klucel (hydroxypropylcellulose) (HPC)
[8] = dose: 100.0 mg/kg/injection, schedule: Q04DX003 (ip), vehicle: Klucel (hydroxypropylcellulose) (HPC)
[9] = dose: 200.0 mg/kg/injection, schedule: Q01DX009 (ip), vehicle: Klucel (hydroxypropylcellulose) (HPC)
[10] = dose: 200.0 mg/kg/injection, schedule: Q04DX003 (ip), vehicle: Klucel (hydroxypropylcellulose) (HPC)
[11] = dose: 400.0 mg/kg/injection, schedule: Q04DX003 (ip), vehicle: Klucel (hydroxypropylcellulose) (HPC)
[12] = dose: 100.0 mg/kg/injection, schedule: Q01DX009 (ip), vehicle: saline with Tween-80
[13] = dose: 200.0 mg/kg/injection, schedule: Q01DX009 (ip), vehicle: saline with Tween-80
[14] = dose: 400.0 mg/kg/injection, schedule: Q01DX009 (ip), vehicle: saline with Tween-80
[15] = dose: 100.0 mg/kg/injection, schedule: Q01DX001 (ip), vehicle: acetone
[16] = dose: 200.0 mg/kg/injection, schedule: Q01DX001 (ip), vehicle: acetone
[17] = dose: 400.0 mg/kg/injection, schedule: Q01DX001 (ip), vehicle: acetone
[18] = dose: 50.0 mg/kg/injection, schedule: Q01DX009 (ip), vehicle: Klucel (hydroxypropylcellulose) (HPC)
[19] = dose: 12.5 mg/kg/injection, schedule: Q04DX003 (ip), vehicle: saline
[20] = dose: 25.0 mg/kg/injection, schedule: Q04DX003 (ip), vehicle: saline

`CC(=O)c1ccc(-c2ccc(C(C)=O)cc2)cc1` was tested, and the T/C [1] was 97 % of control, the T/C [2] was 101 % of control and the T/C [3] was 97 % of control.
With `CSCCNC(=O)CS(=O)(=O)c1ccc(N)cc1` the T/C [4] was 97 % of control, the T/C [5] was 97 % of control and the T/C [6] was 97 % of control.
In the case of `O=C(O)/C(=C\c1ccc(Cl)cc1)c1ccc(Cl)cc1`, the T/C [7] is reported as 104 % of control, the T/C [8] is reported as 95 % of control and the T/C [9] is reported as 89 % of control. For the same molecule, the T/C [10] was 91 % of control and the T/C [11] was 95 % of control.
In the case of `Cc1ncc(C(=O)Nc2ccccc2)[nH]1`, the T/C [7] is reported as 113 % of control, the T/C [8] is reported as 105 % of control and the T/C [9] is reported as 106 % of control. The T/C [10] was 122 % of control.
For `O=C1NC(c2ccccc2)(c2ccccc2)C(=O)N1CNc1ccc(Br)cc1`, the T/C [8] was 89 % of control, the T/C [10] was 89 % of control and the T/C [11] was 92 % of control.
`Cc1c(Cl)cccc1N=C=S` was tested, and the T/C (dose: 75.0 mg/kg/injection, schedule: Q01DX001 (ip), vehicle: saline) was 95 % of control, the T/C (dose: 150.0 mg/kg/injection, schedule: Q01DX001 (ip), vehicle: saline) was 97 % of control and the T/C (dose: 300.0 mg/kg/injection, schedule: Q01DX001 (ip), vehicle: saline) was 100 % of control.
`O=C1OC(=O)C2CC(Br)C(Br)CC12` (stereo not given) was tested, and the T/C [12] was 92 % of control, the T/C [4] was 94 % of control and 102 % of control and the T/C [13] was 89 % of control. For the same molecule, the T/C [5] was 94 % of control, the T/C [14] was 89 % of control and the T/C [6] was 91 % of control and 93 % of control.
In the case of `Cc1c(F)cc(I)cc1[N+](=O)[O-]`, the T/C [15] is reported as 100 % of control, the T/C [12] is reported as 103 % of control and the T/C [4] is reported as 100 % of control. For the same molecule, the T/C [16] was 95 % of control, the T/C [13] was 105 % of control and the T/C [5] was 100 % of control. The T/C [17] was 97 % of control, the T/C [14] was 103 % of control and the T/C [6] was 93 % of control.
For `COC(=O)c1cc(=O)c2cccc(C(=O)O)c2[nH]1`, the T/C [18] was 109 % of control, the T/C [7] was 98 % of control and the T/C [9] was 102 % of control.
In the case of `COC(=O)CCC1([N+](=O)[O-])CCCCC1`, the T/C (dose: 16.5 mg/kg/injection, schedule: Q01DX009 (ip), vehicle: saline with Tween-80) is reported as 96 % of control, the T/C (dose: 25.0 mg/kg/injection, schedule: Q01DX009 (ip), vehicle: saline with Tween-80) is reported as 94 % of control and the T/C (dose: 25.0 mg/kg/injection, schedule: Q04DX003 (ip), vehicle: saline with Tween-80) is reported as 100 % of control. For the same molecule, the T/C (dose: 37.5 mg/kg/injection, schedule: Q01DX009 (ip), vehicle: saline with Tween-80) was 99 % of control, the T/C (dose: 50.0 mg/kg/injection, schedule: Q01DX009 (ip), vehicle: saline with Tween-80) was 100 % of control and the T/C (dose: 50.0 mg/kg/injection, schedule: Q04DX003 (ip), vehicle: saline with Tween-80) was 102 % of control. For the same molecule, the T/C [12] was 94 % of control and the T/C [4] was 105 % of control.
For `O=C(COc1ccccc1)Nc1cccc(C(=O)O)c1`, the T/C [8] was 104 % of control, the T/C [10] was 93 % of control and the T/C [11] was 109 % of control.
For `COc1cccc(OC)c1C(=O)O`, the T/C [1] was 100 % of control, the T/C [2] was 111 % of control and the T/C [3] was 100 % of control.
In the case of `CCOC(=O)NN1C(=O)c2cccc3c([N+](=O)[O-])ccc(c23)C1=O`, the T/C (dose: 12.5 mg/kg/injection, schedule: Q01DX009 (ip), vehicle: Klucel (hydroxypropylcellulose) (HPC)) is reported as 105 % of control, the T/C (dose: 25.0 mg/kg/injection, schedule: Q01DX009 (ip), vehicle: Klucel (hydroxypropylcellulose) (HPC)) is reported as 94 % of control and the T/C [18] is reported as 96 % of control.
For `NC(=O)O/N=C/c1ccccn1`, the T/C [4] was 105 % of control, the T/C [5] was 103 % of control and the T/C [6] was 106 % of control.
For `CS(=O)(=O)OCCN1CCC2(CC1)SSC1(CCN(CCOS(C)(=O)=O)CC1)S2`, the T/C (dose: 6.25 mg/kg/injection, schedule: Q01DX009 (ip), vehicle: saline) was 98 % of control, the T/C (dose: 12.5 mg/kg/injection, schedule: Q01DX009 (ip), vehicle: saline) was 101 % of control and the T/C [19] was 108 % of control. For the same molecule, the T/C [20] was 95 % of control.
`CS(=O)(=O)OCCN(CCOS(C)(=O)=O)c1ccc(C=Nc2ccc(-c3csc(Cc4ccccc4)n3)cc2)cc1` was tested, and the T/C (dose: 20.0 mg/kg/injection, schedule: Q04DX003 (ip), vehicle: Klucel (hydroxypropylcellulose) (HPC)) was 122 % of control, the T/C (dose: 30.0 mg/kg/injection, schedule: Q04DX003 (ip), vehicle: Klucel (hydroxypropylcellulose) (HPC)) was 98 % of control and the T/C (dose: 66.0 mg/kg/injection, schedule: Q04DX003 (ip), vehicle: Klucel (hydroxypropylcellulose) (HPC)) was 152 % of control. The T/C (dose: 150.0 mg/kg/injection, schedule: Q04DX003 (ip), vehicle: Klucel (hydroxypropylcellulose) (HPC)) was 107 % of control.
With `CCCCCC[N+]1(C)CC2C3C=CC(C3)C2C1` (stereo not given) the T/C [19] was 103 % of control, the T/C [20] was 97 % of control and the T/C (dose: 50.0 mg/kg/injection, schedule: Q04DX003 (ip), vehicle: saline) was 97 % of control. For the same molecule, the T/C (dose: 75.0 mg/kg/injection, schedule: Q04DX003 (ip), vehicle: saline) was 92 % of control.
With `O=Cc1ccc([N+](=O)[O-])o1` the T/C (dose: 10.0 mg/kg/injection, schedule: Q01DX001 (ip), vehicle: saline) was 94 % of control, the T/C (dose: 12.5 mg/kg/injection, schedule: Q04DX002 (ip), vehicle: other) was 102 % of control and the T/C (dose: 20.0 mg/kg/injection, schedule: Q01DX001 (ip), vehicle: saline) was 100 % of control. The T/C (dose: 25.0 mg/kg/injection, schedule: Q04DX002 (ip), vehicle: other) was 97 % of control and the T/C (dose: 40.0 mg/kg/injection, schedule: Q01DX001 (ip), vehicle: saline) was 94 % of control.
In the case of `COC1OC(COS(C)(=O)=O)C(OS(C)(=O)=O)C(OS(C)(=O)=O)C1OS(C)(=O)=O` (stereo not given), the T/C [4] is reported as 91 % of control and 100 % of control, the T/C [5] is reported as 93 % of control and 91 % of control and the T/C [6] is reported as 88 % of control and 94 % of control.
For `O=C(O)CCN1CCN(c2cccc(Cl)c2)CC1`, the T/C (dose: 100.0 mg/kg/injection, schedule: Q01DX001 (ip), vehicle: saline) was 96 % of control and the T/C (dose: 200.0 mg/kg/injection, schedule: Q01DX001 (ip), vehicle: saline) was 95 % of control.
With `COc1ccc(/C(=N\O)C(c2ccc(OC)cc2)C(Cl)(Cl)Cl)cc1` (stereo not given) the T/C [7] was 92 % of control, the T/C [9] was 95 % of control and the T/C (dose: 400.0 mg/kg/injection, schedule: Q01DX009 (ip), vehicle: Klucel (hydroxypropylcellulose) (HPC)) was 97 % of control.
For `O=[N+]([O-])c1cccn2ncnc12`, the T/C (dose: 5.0 mg/kg/injection, schedule: Q01DX001 (ip), vehicle: acetone) was 104 % of control, the T/C (dose: 10.0 mg/kg/injection, schedule: Q01DX001 (ip), vehicle: acetone) was 106 % of control and the T/C (dose: 20.0 mg/kg/injection, schedule: Q01DX001 (ip), vehicle: acetone) was 96 % of control. The T/C (dose: 40.0 mg/kg/injection, schedule: Q01DX001 (ip), vehicle: acetone) was 96 % of control and the T/C (dose: 80.0 mg/kg/injection, schedule: Q01DX001 (ip), vehicle: acetone) was 107 % of control.
`c1ccc2c(c1)sc1cc3ccncc3cc12` was tested, and the T/C (dose: 75.0 mg/kg/injection, schedule: Q01DX001 (ip), vehicle: other) was 110 % of control, the T/C (dose: 150.0 mg/kg/injection, schedule: Q01DX001 (ip), vehicle: other) was 101 % of control and the T/C (dose: 300.0 mg/kg/injection, schedule: Q01DX001 (ip), vehicle: other) was 107 % of control.
With `CC1(C)N=C(N)N=C(N)N1c1ccc(OCCCOc2ccccc2)c(Cl)c1` the T/C [18] was 98 % of control, the T/C [7] was 102 % of control and the T/C [8] was 92 % of control. For the same molecule, the T/C [10] was 91 % of control.
`Cc1cc(C)c(C)c(C(=O)O)c1C` was tested, and the T/C [15] was 98 % of control, the T/C (dose: 100.0 mg/kg/injection, schedule: Q01DX009 (ip), vehicle: acetone) was 101 % of control and the T/C (dose: 100.0 mg/kg/injection, schedule: Q04DX003 (ip), vehicle: saline) was 88 % of control. The T/C [16] was 89 % of control, the T/C (dose: 200.0 mg/kg/injection, schedule: Q01DX009 (ip), vehicle: acetone) was 106 % of control and the T/C (dose: 200.0 mg/kg/injection, schedule: Q04DX003 (ip), vehicle: saline) was 102 % of control. For the same molecule, the T/C [17] was 94 % of control, the T/C (dose: 400.0 mg/kg/injection, schedule: Q01DX009 (ip), vehicle: acetone) was 105 % of control and the T/C (dose: 400.0 mg/kg/injection, schedule: Q04DX003 (ip), vehicle: saline) was 112 % of control.
